Test results: PubChem BioAssay AID2060489 (Molecular Pharmacology Branch, DTP, NCI, 2025)

Test system: 922993-354-T-J3-PDC complex spheroids, viability
Test: Anticancer human tumor 922993-354-T-J3-PDC patient-derived endometrial carcinoma cell line growth inhibition [GQUAD]
Conditions: for IC50: curve of first compound; for viability, T/C: stronger effect = lower value; active means viability on the fitted dose curve at most 10% of control; inactive means the rest
In short: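 Multi-cell-type spheroids of tumor cells with HUVEC and mesenchymal stem cells, treated with drug combinations. Concentrations descend in half-log steps from near clinical Cmax, or from 10 microM where Cmax is unknown; viability read-out.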

[1] = second compound 0.0316 µM, first compound 0.0316 µM
[2] = second compound 0.0316 µM, first compound 0.1 µM
[3] = second compound 0.0316 µM, first compound 0.316 µM
[4] = second compound 0.0316 µM, first compound 1 µM
[5] = second compound 0.0316 µM, first compound 3.16 µM
[6] = second compound 0.0316 µM, first compound 10 µM
[7] = second compound 0.1 µM, first compound 0.0316 µM
[8] = second compound 0.1 µM, first compound 0.1 µM
[9] = second compound 0.1 µM, first compound 0.316 µM
[10] = second compound 0.1 µM, first compound 1 µM
[11] = second compound 0.1 µM, first compound 3.16 µM
[12] = second compound 0.1 µM, first compound 10 µM
[13] = second compound 0.316 µM, first compound 0.0316 µM
[14] = second compound 0.316 µM, first compound 0.1 µM
[15] = second compound 0.316 µM, first compound 0.316 µM
[16] = second compound 0.316 µM, first compound 1 µM
[17] = second compound 0.316 µM, first compound 3.16 µM
[18] = second compound 0.316 µM, first compound 10 µM
[19] = second compound 1 µM, first compound 0.0316 µM
[20] = second compound 1 µM, first compound 0.1 µM
[21] = second compound 1 µM, first compound 0.316 µM
[22] = second compound 1 µM, first compound 1 µM
[23] = second compound 1 µM, first compound 3.16 µM
[24] = second compound 1 µM, first compound 10 µM
[25] = second compound 3.16 µM, first compound 0.0316 µM
[26] = second compound 3.16 µM, first compound 0.1 µM
[27] = second compound 3.16 µM, first compound 0.316 µM
[28] = second compound 3.16 µM, first compound 1 µM
[29] = second compound 3.16 µM, first compound 3.16 µM
[30] = second compound 3.16 µM, first compound 10 µM
[31] = second compound 10 µM, first compound 0.0316 µM
[32] = second compound 10 µM, first compound 0.1 µM
[33] = second compound 10 µM, first compound 0.316 µM
[34] = second compound 10 µM, first compound 1 µM
[35] = second compound 10 µM, first compound 3.16 µM
[36] = second compound 10 µM, first compound 10 µM
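Further: spheroids exposed to compounds for seven days.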
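Wherever viability, T/C is given: 100% = DMSO vehicle control viability.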

COc1ccc([C@@H](O)c2cc(-c3ncnc4cc(N5CCOCC5)ccc34)c(F)cc2Cl)nn1 + Cc1cnc(CNC(=O)c2c(=O)c3ccc(N4CCCN(C)CC4)nc3n3c2sc2ccccc23)cn1
2.86 µM: IC50 (second compound 0.0316 µM)
< 0.0316 µM: IC50 (second compound 10 µM)
1.83 µM: IC50 (second compound 3.16 µM)
1.02 µM: IC50 (second compound 0.1 µM)
inactive: viability, T/C [1] 84.2% | viability, T/C [2] 60.5% | viability, T/C [3] 88.1% | viability, T/C [4] 66.6% | viability, T/C [5] 49.9% | viability, T/C [6] 42.9% | viability, T/C [7] 79.9% | viability, T/C [8] 61.7% | viability, T/C [9] 67.7% | viability, T/C [10] 44.3% | viability, T/C [11] 44.1% | viability, T/C [12] 35.6% | viability, T/C [13] 66.7% | viability, T/C [14] 54.3% | viability, T/C [15] 48.1% | viability, T/C [16] 52.6% | viability, T/C [17] 45.5% | viability, T/C [18] 38.1% | viability, T/C [19] 57.1% | viability, T/C [20] 49.5% | viability, T/C [21] 56.7% | viability, T/C [22] 57.7% | viability, T/C [23] 58.6% | viability, T/C [24] 27.1% | viability, T/C [25] 51.8% | viability, T/C [26] 51% | viability, T/C [27] 55.7% | viability, T/C [28] 52.3% | viability, T/C [29] 47.8% | viability, T/C [30] 14.6% | viability, T/C [31] 45% | viability, T/C [32] 50.7% | viability, T/C [33] 46.8% | viability, T/C [34] 38.6% | viability, T/C [35] 30.3%
active: viability, T/C [36] 4.3%
3.99 µM: IC50 (second compound 1 µM)
0.456 µM: IC50 (second compound 0.316 µM)

COc1ncnc(C2CC2)c1-c1ncc2cnn(Cc3ccc(-c4nc(C(F)(F)F)cn4C(C)C)cc3)c2n1 + CN(C)c1ccc(Nc2c3ccc(NC(=O)CCN4CCCC4)cc3nc3cc(NC(=O)CCN4CCCC4)ccc23)cc1
> 10 µM: IC50 (second compound 0.0316 µM) | IC50 (second compound 0.1 µM) | IC50 (second compound 0.316 µM) | IC50 (second compound 1 µM) | IC50 (second compound 3.16 µM) | IC50 (second compound 10 µM)
inactive: viability, T/C [1] 94.4% | viability, T/C [2] 96.5% | viability, T/C [3] 84% | viability, T/C [4] 72.3% | viability, T/C [5] 63.5% | viability, T/C [6] 87.7% | viability, T/C [7] 86% | viability, T/C [8] 86.7% | viability, T/C [9] 80.9% | viability, T/C [10] 86.6% | viability, T/C [11] 101% | viability, T/C [12] 67.2% | viability, T/C [13] 90.8% | viability, T/C [14] 86% | viability, T/C [15] 74.2% | viability, T/C [16] 81.2% | viability, T/C [17] 90.1% | viability, T/C [18] 74.2% | viability, T/C [19] 73.8% | viability, T/C [20] 86.4% | viability, T/C [21] 93.6% | viability, T/C [22] 74.3% | viability, T/C [23] 90.4% | viability, T/C [24] 76.8% | viability, T/C [25] 98.3% | viability, T/C [26] 109% | viability, T/C [27] 108% | viability, T/C [28] 98.3% | viability, T/C [29] 108% | viability, T/C [30] 76.6% | viability, T/C [31] 115% | viability, T/C [32] 116% | viability, T/C [33] 86.6% | viability, T/C [34] 107% | viability, T/C [35] 101% | viability, T/C [36] 62.9%

C=CC(=O)N1CCN(c2nc(=O)n(-c3c(C)ccnc3C(C)C)c3nc(-c4c(O)cccc4F)c(F)cc23)C(C)C1 (stereo unspecified) + Cc1cnc(CNC(=O)c2c(=O)c3ccc(N4CCCN(C)CC4)nc3n3c2sc2ccccc23)cn1
inactive: viability, T/C [1] 109% | viability, T/C [2] 89.1% | viability, T/C [3] 79.2% | viability, T/C [4] 99.5% | viability, T/C [5] 80.4% | viability, T/C [6] 100% | viability, T/C [7] 71.2% | viability, T/C [8] 73.2% | viability, T/C [9] 52.8% | viability, T/C [10] 67% | viability, T/C [11] 77.2% | viability, T/C [12] 53.9% | viability, T/C [13] 49.1% | viability, T/C [14] 57.5% | viability, T/C [15] 51.8% | viability, T/C [16] 53.1% | viability, T/C [17] 55.1% | viability, T/C [18] 61.9% | viability, T/C [19] 55.2% | viability, T/C [20] 61.1% | viability, T/C [21] 46.9% | viability, T/C [22] 47.7% | viability, T/C [23] 53.8% | viability, T/C [24] 55.1% | viability, T/C [25] 53.9% | viability, T/C [26] 55.9% | viability, T/C [27] 55.4% | viability, T/C [28] 51.3% | viability, T/C [29] 65.7% | viability, T/C [30] 53.7% | viability, T/C [31] 52.5% | viability, T/C [32] 58.1% | viability, T/C [33] 53.2% | viability, T/C [34] 46% | viability, T/C [35] 64% | viability, T/C [36] 70%
0.0316 µM: IC50 (second compound 10 µM)
> 10 µM: IC50 (second compound 0.0316 µM) | IC50 (second compound 0.1 µM) | IC50 (second compound 0.316 µM) | IC50 (second compound 1 µM) | IC50 (second compound 3.16 µM)
